{"source": "patent US20080170990A1", "about": "“Methods for Myocardial Imaging in Patients Having a History of Pulmonary Disease” (CV THERAPEUTICS, INC., priority 2006, published 2008)", "key": {"[1]": {"test_system": "patients undergoing a clinically indicated coronary catheterization", "test": "Coronary blood flow velocity (CBFv) by Doppler flow wire after IV bolus, open label study (Example 1)", "format": "in vivo, human", "description": "The purpose of this open label study was to determine the magnitude and duration of effect of Regadenoson (10-500 μg) on CBFv in humans.\nPatients undergoing a clinically indicated coronary catheterization with no more than a 70% stenosis in any coronary artery and no more than a 50% stenosis of the study vessel had CBFv determined by Doppler flow wire. Study subjects were selected after measuring baseline and peak CBFv after an intracoronary (IC) injection of 18 μg of Ado. Twenty-three patients, who were identified as meeting the study criteria of having a peak to baseline CBFv ration of ≧2.5 in response to Adenosine, received a rapid (≦10 sec) peripheral IV bolus of Regadenoson; Doppler signals were stable and interpretable over the time-course of the increase in CBFv in 17 patients."}, "[2]": {"test_system": "patients undergoing a clinically indicated coronary catheterization", "test": "Dose-ranging study of coronary flow velocity, heart rate and blood pressure after IV bolus (Example 2)", "format": "in vivo, human", "description": "The study included patients undergoing a clinically indicated coronary catheterization with no more than a 70% stenosis in any coronary artery and no more than a 50% stenosis of the study vessel had CBFv determined by Doppler flow wire. Study subject were selected after measuring baseline and peak CBFv after an intracoronary (IC) injection of 18 μg of Ado. 36 subjects were identified as meeting the study criteria of having a peak to baseline CBFv ration of ≧2.5 in response to Adenosine,\nRegadenoson was administered to the study subjects by IV bolus in less than 10 seconds in amounts ranging from 10 μg to 500 μg. Regadenoson is selective for the A2A adenosine receptor.\nThe effectiveness of both compounds was measured by monitoring coronary flow velocity. Other coronary parameters that were monitored included heart rate and blood pressure. These parameters were measured in order to evaluate the time to peak dose response, the magnitude of the dose response and the duration of the dose response. Adverse events were also monitored. Coronary blood flow velocity was measured at the LAD or LCx vessel. The velocity measurements were taken by following standard heart catheterization techniques and inserting a 0.014 inch Doppler-tipped Flowire into the LAD or LCx vessel and thereafter monitoring blood flow velocity. In addition, hemodynamic and electrocardiographic measurements were recorded continuously.\nOverall, 36 human subjects (n=36) were evaluated. Of the 36, 18 were female and 18 were male. Their mean age was 53.4 and they ranged from 24-72 years in age. Of the 36 subjects evaluated, the LAD vessel of 31 subjects was monitored, and the LCx vessel of 5 subjects was monitored. The following doses (μg) of Regadenoson were given to the subjects in a single iv bolus: 10 (n=4); 30 (n=6); 100 (n=4); 300 (n=7); 400 (n=9); 500 (n=6)."}, "[3]": {"test_system": "subjects undergoing pharmacologic stress MPI", "test": "Adverse effects and hemodynamics in pharmacologic stress myocardial perfusion imaging protocol (Example 7)", "format": "in vivo, human", "description": "36 subjects (27 men, 9 women; 67±10 years) were studied with two doses of Regadenoson [400 mcg (n=18), 500 mcg (n=18)], administered as an IV bolus, as part of a pharmacologic stress myocardial perfusion imaging protocol."}, "awake dogs": {"test_system": "awake dogs", "test": "Blood flow in coronary, mesenteric, hind limb and renal vascular beds (Example 8)", "format": "in vivo, dog", "description": "In this study the vasodilator effects of Regadenoson were compared to those of ADO in different vascular beds in awake dogs. Dogs were chronically instrumented for measurements of the blood flow in coronary (CBF), mesenteric (MBF), hind limb (LBF), and renal (RBF) vascular beds, and hemodynamics."}, "COPD patients": {"test_system": "COPD patients", "settings": "both, human, in vivo", "description": "COPD patients were selected from two phase III randomized, triple-blind, placebo-controlled, multicenter studies (N=2,015) designed to test the strength of agreement for reversible cardiac defects between ADO and REG. There were 35 patients in the ADO group and 69 in the Regadenoson group. Age and gender were similar between ADO (68=11 yrs; 77% male) and Regadenoson group (68±11 yrs; 81% male). Of the 35 patients, 5 suffered (14%) cardiac symptoms in the ADO group vs 3/69 (4%) in the Regadenoson group (p=0.12); 14/35 (40%) in the ADO vs. 20/69 (29%) in the Regadenoson group resorted respiratory symptoms (p=0.28). Angina, occurrence of second degree AV block, acute pulmonary oedema and ronchi were higher in ADO group; nausea, GI discomfort and headache occurred more often in the Regadenoson group."}, "[4]": {"test_system": "patients with moderate or several chronic obstructive pulmonary disease (COPD)", "test": "Double-blind placebo-controlled crossover trial in chronic obstructive pulmonary disease (Example 11)", "format": "in vivo, human", "description": "Two similar randomized, double-blind, placebo (PLC)-controlled crossover trials were conducted, one in asthmatics with a positive adenosine monophosphate (AMP) challenge (a validated marker of airway inflammation) and one in patients with moderate or several chronic obstructive pulmonary disease (COPD). In both studies, short-acting bronchodilators were held prior to and for the 120 minute time frame study drug treatment during which spirometry was repeatedly assessed."}, "[5]": {"settings": "400 μg IV bolus, about 1 minute after dosing"}, "[6]": {"settings": "400 or 500 mcg IV bolus, 36 subjects"}}, "data": [{"compound": "CNC(=O)c1cnn(-c2nc(N)c3ncn([C@@H]4O[C@H](CO)[C@@H](O)[C@H]4O)c3n2)c1", "note": "[Regadenoson, (1-{9-[(4S,2R,3R,5R)-3,4-dihydroxy-5-(hydroxymethyl)oxolan-2-yl]-6-aminopurin-2-yl}pyrazol-4-yl)-N-methylcarboxamide]", "values": [{"measurement": "maximal decrease in systolic BP", "setting": "[1]; 500 μg IV bolus", "result": "8.7±7.6"}, {"measurement": "maximal increase in HR", "setting": "[1]; 500 μg IV bolus", "result": "18.7±4.0"}, {"measurement": "adverse events (AEs)", "setting": "[1]; 3 patients receiving the 500 μg dose", "result": "No AEs"}, {"measurement": "adverse events (AEs)", "setting": "[1]; 10-500 μg IV bolus, nausea, flushing, headache, mild and self-limited", "result": "infrequent"}, {"measurement": "peak to baseline CBFv ratio", "setting": "[1]; Regadenoson 100, 300 and 500 μg IV bolus, mean ±SD", "result": "3.2±0.6"}, {"measurement": "maximum decrease in diastolic BP", "setting": "[2]; [5]", "result": "10±5", "unit": "mmHg"}, {"measurement": "maximum decrease in systolic BP", "setting": "[2]; [5]", "result": "20±8", "unit": "mmHg"}, {"measurement": "maximum increase in heart rate", "setting": "[2]; [5]", "result": "18±8", "unit": "bpm"}, {"measurement": "tolerability", "setting": "[2]; 10-500 μg IV bolus", "result": "generally well tolerated"}, {"measurement": "amount at which plateau peak flow velocity is reached", "setting": "[2]; IV bolus", "result": "less than 100 μg"}, {"measurement": "lowest amount that increases peak flow velocity", "setting": "[2]; IV bolus", "result": 10, "unit": "µg"}, {"measurement": "time to peak flow", "setting": "[2]; all doses (10-500 μg IV bolus)", "result": "about 30 seconds"}, {"measurement": "peak effects compared with adenosine", "setting": "[2]; doses above about 100 μg", "result": "equivalent to 18 μg ic adenosine"}, {"measurement": "incidence of dizziness", "setting": "[3]; 400-mcg group", "result": 11, "unit": "%"}, {"measurement": "incidence of dyspnea", "setting": "[3]; 400-mcg group", "result": 17, "unit": "%"}, {"measurement": "incidence of flushing", "setting": "[3]; 400-mcg group", "result": 17, "unit": "%"}, {"measurement": "mean change in HR response", "setting": "[3]; 400 mcg dose", "result": 34.8, "unit": "%"}, {"measurement": "patients with adverse effects (AE)", "setting": "[3]; [6]", "result": 72, "unit": "%"}, {"measurement": "patients with adverse effects (AE), number", "setting": "[3]; [6]", "result": 26, "unit": "pts"}, {"measurement": "incidence of dizziness", "setting": "[3]; 500-mcg group", "result": 28, "unit": "%"}, {"measurement": "incidence of dyspnea", "setting": "[3]; 500-mcg group", "result": 44, "unit": "%"}, {"measurement": "incidence of flushing", "setting": "[3]; 500-mcg group", "result": 44, "unit": "%"}, {"measurement": "mean change in HR response", "setting": "[3]; 500 mcg dose", "result": 44.2, "unit": "%"}, {"measurement": "incidence of abdominal pain", "setting": "[3]; both doses", "result": 11, "unit": "%"}, {"measurement": "incidence of chest discomfort", "setting": "[3]; both doses", "result": 33, "unit": "%"}, {"measurement": "incidence of headache", "setting": "[3]; both doses", "result": 25, "unit": "%"}, {"measurement": "lowest systolic BP (did not fall below)", "setting": "[3]; either dose", "result": "≥ 90", "unit": "mmHg"}, {"measurement": "serious AE", "setting": "[3]; exacerbation of a migraine headache, required hospitalization", "result": "One serious AE occurred"}, {"measurement": "AEs resolved within 15 min without treatment", "setting": "[3]; in vivo", "result": 91, "unit": "%"}, {"measurement": "AEs that were mild to moderate", "setting": "[3]; in vivo", "result": 96, "unit": "%"}, {"measurement": "AV block and arrhythmias", "setting": "[3]; in vivo", "result": "No 2nd or 3rd degree AV block was noted and there were no serious arrhythmias"}, {"measurement": "patients developing ST abnormalities", "setting": "[3]; in vivo", "result": 7, "unit": "pts"}, {"measurement": "patients developing T wave abnormalities", "setting": "[3]; in vivo", "result": 5, "unit": "pts"}, {"measurement": "time of peak hemodynamic effect, diastolic BP", "setting": "[3]; in vivo", "result": 8, "unit": "min"}, {"measurement": "time of peak hemodynamic effect, heart rate", "setting": "[3]; in vivo", "result": "≤ 2", "unit": "min"}, {"measurement": "time of peak hemodynamic effect, systolic BP", "setting": "[3]; in vivo", "result": 4, "unit": "min"}, {"measurement": "Diastolic BP, Absolute Change (peak)", "setting": "[3]; mean ±S.D., 400 and 500 mcg", "result": "−5.4 ± 7.2", "unit": "mmHg"}, {"measurement": "Diastolic BP, Relative Change (peak)", "setting": "[3]; mean ±S.D., 400 and 500 mcg", "result": "−7.9% ± 10.5%"}, {"measurement": "Heart Rate, Absolute Change (peak)", "setting": "[3]; mean ±S.D., 400 and 500 mcg", "result": "+21.9 ± 10.4 beats per min"}, {"measurement": "Heart Rate, Relative Change (peak)", "setting": "[3]; mean ±S.D., 400 and 500 mcg", "result": "+36.7% + 21.0%"}, {"measurement": "Systolic BP, Absolute Change (peak)", "setting": "[3]; mean ±S.D., 400 and 500 mcg", "result": "−5.9 ± 10.7", "unit": "mmHg"}, {"measurement": "Systolic BP, Relative Change (peak)", "setting": "[3]; mean ±S.D., 400 and 500 mcg", "result": "−4.1% ± 7.6%"}, {"measurement": "BP deviation from baseline", "setting": "[3]; thirty min after Regadenoson", "result": "< 2", "unit": "%"}, {"measurement": "HR above baseline", "setting": "[3]; thirty min after Regadenoson", "result": 8.6, "unit": "%"}, {"measurement": "potency relative to adenosine in increasing coronary blood flow velocity (CBFv)", "setting": "awake dogs; awake dogs", "result": "> 100", "unit": "fold"}, {"measurement": "increase in hind limb blood flow (LBF)", "setting": "awake dogs; mean ±SE, n=6, FIG. 18", "result": "smaller increase in LBF than ADO"}, {"measurement": "patients with cardiac symptoms", "setting": "COPD patients", "result": 4, "unit": "%"}, {"measurement": "patients with cardiac symptoms, number", "setting": "COPD patients", "result": "3/69"}, {"measurement": "patients with respiratory symptoms", "setting": "COPD patients", "result": 29, "unit": "%"}, {"measurement": "patients with respiratory symptoms, number", "setting": "COPD patients", "result": "20/69"}, {"measurement": "incidence of dyspnea following REG", "setting": "[4]; COPD study", "result": 61, "unit": "%"}, {"measurement": "Number of patients with FEV1 decline by >20% over 120 min", "setting": "[4]; COPD study N=49", "result": "2 REG, 3 PLC"}, {"measurement": "Number of patients with FEV1 decline by >30% over 120 min", "setting": "[4]; COPD study N=49", "result": "0 REG, 1 PLC"}, {"measurement": "Number of patients with use of acute oxygen or short-acting bronchodilators", "setting": "[4]; COPD study N=49", "result": "0 REG, 0 PLC"}, {"measurement": "Number of patients with FEV1 decline by >15% over 120 min", "setting": "[4]; COPD study N=49, p = 0.31", "result": "6 REG, 3 PLC"}, {"measurement": "Number of patients with new onset wheezing", "setting": "[4]; COPD study N=49, p = 0.33 vs PLC", "result": "3 REG, 6 PLC"}, {"measurement": "Maximum decline in FEV1", "setting": "[4]; COPD study N=49, p = 0.55 vs PLC", "result": "0.11 (0.14)L REG"}, {"measurement": "Maximum decline in oxygen saturation", "setting": "[4]; COPD study N=49, p = 0.72 vs PLC", "result": "1.21 (1.30)% REG"}]}]}
